Test results reported in patent US20120259123A1, “AMINOPYRIDINE COMPOUND” (UBE INDUSTRIES, LTD., priority 2009, published 2012).
Counter-ions that a name gives are not always drawn.

Assays:
human EP2 receptor [1] = biological target: T1, human EP2 receptor (Homo sapiens, UniProt P43116); experiment: Measurement of EP2 receptor binding affinity ([3H]PGE2 displacement); conditions: read-out: Ki value of EP2 receptor binding affinity
T1 construct: purchased Euroscreen S.A. ES-562-M; host or cells: HEK293 cells
Procedure: (§1) Measurement of EP2 receptor binding affinity was carried out according to the method of Abramovitz et al. (Biochimica et Biophysica Acta, 1483, 285 (2000)). […] The membrane fraction was recovered on glass fiber filter paper (GF/B, available from Whatman PLC) using a cell harvester […], available from Brandel Inc.), and after washing with a buffer solution (10 mM MES-KOH (pH 6.0), 10 mM MgCl2), radioactivity was measured with a liquid scintillation analyzer (2000CA, available from Packard). […] The dissociation constant (Kd value) was calculated by Scatchard analysis.

human EP2 receptor [2] = biological target: T1, human EP2 receptor; experiment: Measurement of EP2 agonist activity (cAMP amount in cells); type: cell-based; conditions: HEK 293 cells expressing human EP2 receptor, cAMP increase, 30 minutes
Procedure: Measurement of EP2 agonist activity was carried out according to the method of Wilson et al. (European Journal of Pharmacology, 501, 49 (2004)). […] On the next day, the medium was replaced with serum-free MEM medium containing 3-isobutyl-1-methylxanthine (final concentration: 500 μM) and after culturing for 30 minutes, a test compound dissolved in dimethylsulfoxide was added and the medium was allowed to stand in a carbon dioxide gas incubator. After 30 minutes, an amount of cAMP in the cells was measured with a cAMP Biotrak EIA System kit (available from GE Healthcare Bioscience).

human EP1 receptor = biological target: T2, human EP1 receptor (Homo sapiens, UniProt P34995); experiment: Measurement of EP1 receptor binding affinity ([3H]PGE2 displacement); conditions: membrane fraction of Chem-1 cells expressing human EP1 receptor, [3H]PGE2 10 nM
T2 sequence (P34995 1-402): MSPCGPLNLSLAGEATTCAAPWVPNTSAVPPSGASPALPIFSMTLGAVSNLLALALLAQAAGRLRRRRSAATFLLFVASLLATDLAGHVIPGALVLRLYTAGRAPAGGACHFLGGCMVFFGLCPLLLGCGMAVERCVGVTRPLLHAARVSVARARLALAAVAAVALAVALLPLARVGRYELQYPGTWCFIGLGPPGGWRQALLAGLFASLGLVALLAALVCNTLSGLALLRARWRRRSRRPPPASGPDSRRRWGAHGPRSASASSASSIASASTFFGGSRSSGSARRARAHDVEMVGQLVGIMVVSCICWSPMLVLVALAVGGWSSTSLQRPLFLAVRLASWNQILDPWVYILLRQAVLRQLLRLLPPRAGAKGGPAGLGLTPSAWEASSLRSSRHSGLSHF
Procedure: as §1, with “EP1” for “EP2”, “PLC) pretreated with 0.3% polyethyleneimine by” for “PLC)”

T1 sequence (P43116 whole entry): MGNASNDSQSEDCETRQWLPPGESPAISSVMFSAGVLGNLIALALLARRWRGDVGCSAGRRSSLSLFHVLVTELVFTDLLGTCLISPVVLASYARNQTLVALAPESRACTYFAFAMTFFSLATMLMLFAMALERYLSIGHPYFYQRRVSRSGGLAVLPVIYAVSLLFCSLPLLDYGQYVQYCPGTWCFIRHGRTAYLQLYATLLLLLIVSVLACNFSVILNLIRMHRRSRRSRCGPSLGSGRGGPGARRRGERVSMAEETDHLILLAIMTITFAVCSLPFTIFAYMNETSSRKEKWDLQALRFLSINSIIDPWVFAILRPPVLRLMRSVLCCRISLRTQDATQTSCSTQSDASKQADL

CCCCC(C)(C)c1ccc(CN(Cc2cccc(NCC(=O)O)n2)S(=O)(=O)c2ccc(F)cc2)s1 [Example 3, (6-{(4-Fluorobenzenesulfonyl)[5-(1,1-dimethylpentyl)thiophen-2-ylmethyl]aminomethyl}pyridin-2-ylamino)acetic acid]
Ki (human EP2 receptor [1]): 1.8 nM
EC50 (human EP2 receptor [2]): 6 nM

CCC(C)(C)c1ccc(CN(Cc2cccc(NCC(=O)O)n2)S(=O)(=O)c2ccccn2)s1 [Example 4, {6-[(5-tert-Pentylthiophen-2-ylmethyl)(pyridin-2-ylsulfonyl)aminomethyl]pyridin-2-ylamino}acetic acid]
Ki (human EP2 receptor [1]): 3.4 nM
EC50 (human EP2 receptor [2]): 7 nM

CC1(c2ccc(CN(Cc3cccc(NCC(=O)O)n3)S(=O)(=O)c3cccnc3)cc2)CC1 [Example 5, (6-{[4-(1-Methylcyclopropyl)benzyl](pyridin-3-ylsulfonyl)aminomethyl}pyridin-2-ylamino)acetic acid hydrochloride]
EC50 (human EP2 receptor [2]): 2.6 nM

CCC1(c2ccc(CN(Cc3cccc(NCC(=O)O)n3)S(=O)(=O)c3ccccn3)cc2)CC1 [Example 6, (6-{[4-(1-Ethylcyclopropyl)benzyl](pyridin-2-ylsulfonyl)aminomethyl}pyridin-2-ylamino)acetic acid]
EC50 (human EP2 receptor [2]): 5.4 nM

CCC1(c2ccc(CN(Cc3cccc(NCC(=O)O)n3)S(=O)(=O)c3cccnc3)cc2)CC1 [Example 7, (6-{[4-(1-Ethylcyclopropyl)benzyl](pyridin-3-ylsulfonyl)aminomethyl}pyridin-2-ylamino)acetic acid]
Ki (human EP2 receptor [1]): 8.3 nM
EC50 (human EP2 receptor [2]): 4.5 nM

CCCCC1(c2ccc(CN(Cc3cccc(NCC(=O)O)n3)S(=O)(=O)c3cccnc3)cc2)CC1 [Example 10, 6-{[4-(1-Butylcyclopropyl)benzyl](pyridin-3-ylsulfonyl)aminomethyl}pyridin-2-ylamino)acetic acid hydrochloride]
Ki (human EP2 receptor [1]): 11 nM
EC50 (human EP2 receptor [2]): 4.2 nM

CCC1(c2ccc(CN(Cc3cccc(NCC(=O)O)n3)S(=O)(=O)c3ccc(F)cc3)cc2)CC1 [Example 14, (6-{[4-(1-Ethylcyclopropyl)benzyl](4-fluorobenzenesulfonyl)aminomethyl}pyridin-2-ylamino)acetic acid]
EC50 (human EP2 receptor [2]): 8 nM

CCCCC1(c2ccc(CN(Cc3cccc(NCC(=O)O)n3)S(=O)(=O)c3ccncc3)cc2)CC1 [Example 16, (6-{[4-(1-Butylcyclopropyl)benzyl](pyridin-4-ylsulfonyl)aminomethyl}pyridin-2-ylamino)acetic acid]
Ki (human EP2 receptor [1]): 6.1 nM
EC50 (human EP2 receptor [2]): 6.3 nM

CC(C)(C)c1ccc(CN(Cc2cccc(NCC(=O)O)n2)S(=O)(=O)c2ccccc2)cc1 [Example 21, {6-[(Benzenesulfonyl)(4-tert-butylbenzyl)aminomethyl]pyridin-2-ylamino}acetic acid hydrochloride]
EC50 (human EP2 receptor [2]): 4.3 nM

CC(C)(C)c1ccc(CN(Cc2cccc(NCC(=O)O)n2)S(=O)(=O)c2ccccn2)cc1 [Example 23, {6-[(4-tert-Butylbenzyl)(pyridin-2-ylsulfonyl)aminomethyl]pyridin-2-ylamino}acetic acid hydrochloride]
EC50 (human EP2 receptor [2]): 2.7 nM

CCCC=C(C)c1ccc(CN(Cc2cccc(NCC(=O)O)n2)S(=O)(=O)c2ccccn2)cc1 [Example 24, (6-{[4-(1-Methyl-1-pentenyl)benzyl](pyridin-2-ylsulfonyl)aminomethyl}pyridin-2-ylamino)acetic acid]
EC50 (human EP2 receptor [2]): 4.5 nM

CCC(CC)c1ccc(CN(Cc2cccc(NCC(=O)O)n2)S(=O)(=O)c2cccnc2)cc1 [Example 27, (6-{[4-(1-Ethylpropyl)benzyl](pyridin-3-ylsulfonyl)aminomethyl}pyridin-2-ylamino)-acetic acid]
EC50 (human EP2 receptor [2]): 6.9 nM

CCC(C)(C)c1ccc(CN(Cc2cccc(NCC(=O)O)n2)S(=O)(=O)c2ccccn2)cc1 [Example 28, {6-[(4-tert-Pentylbenzyl)(pyridin-2-ylsulfonyl)aminomethyl]pyridin-2-ylamino}acetic acid hydrochloride]
Ki (human EP2 receptor [1]): 9.8 nM
EC50 (human EP2 receptor [2]): 6.4 nM

CC(C)(C)Cc1ccc(CN(Cc2cccc(NCC(=O)O)n2)S(=O)(=O)c2ccccn2)cc1 [Example 29, {6-[(4-Neopentylbenzyl)(pyridin-2-ylsulfonyl)aminomethyl]pyridin-2-ylamino}acetic acid hydrochloride]
EC50 (human EP2 receptor [2]): 5 nM

CC(C)(C)c1ccc(CN(Cc2cccc(NCC(=O)O)n2)S(=O)(=O)c2ccc(F)cc2)cc1 [Example 30, {6-[(4-tert-Butylbenzyl)(4-fluorobenzenesulfonyl)aminomethyl]pyridin-2-ylamino}-acetic acid hydrochloride]
Ki (human EP2 receptor [1]): 8.3 nM
EC50 (human EP2 receptor [2]): 2.7 nM

CC(C)(C)c1ccc(CN(Cc2cccc(NCC(=O)O)n2)S(=O)(=O)c2cccc(F)c2)cc1 [Example 31, {6-[(4-tert-Butylbenzyl)(3-fluorobenzenesulfonyl)aminomethyl]pyridin-2-ylamino}-acetic acid hydrochloride]
Ki (human EP2 receptor [1]): 8.6 nM
EC50 (human EP2 receptor [2]): 6.1 nM

CC(C)(C)c1ccc(CN(Cc2cccc(NCC(=O)O)n2)S(=O)(=O)c2ccc(Cl)cc2)cc1 [Example 33, {6-[(4-tert-Butylbenzyl)(4-chlorobenzenesulfonyl)aminomethyl]pyridin-2-ylamino}-acetic acid hydrochloride]
Ki (human EP2 receptor [1]): 4.4 nM
EC50 (human EP2 receptor [2]): 4.4 nM

CC(C)(C)c1ccc(CN(Cc2cccc(NCC(=O)O)n2)S(=O)(=O)c2cccnc2)cc1 [Example 35, {6-[(4-tert-Butylbenzyl)(pyridin-3-ylsulfonyl)aminomethyl]pyridin-2-ylamino}acetic acid hydrochloride]
EC50 (human EP2 receptor [2]): 2.8 nM

CCCCC(C)c1ccc(CN(Cc2cccc(NCC(=O)O)n2)S(=O)(=O)c2ccccn2)cc1 (stereo not drawn) [Example 40, (6-{[4-(1-Methylpentyl)benzyl](pyridin-2-ylsulfonyl)aminomethyl}pyridin-2-ylamino)-acetic acid]
Ki (human EP2 receptor [1]): 5.3 nM
EC50 (human EP2 receptor [2]): 2.8 nM

CCCCC(C)(C)c1ccc(CN(Cc2cccc(NCC(=O)O)n2)S(=O)(=O)c2ccncc2)cc1 [Example 43, (6-{[4-(1,1-Dimethylpentyl)benzyl](pyridin-4-ylsulfonyl)aminomethyl}pyridin-2-ylamino)acetic acid]
Ki (human EP2 receptor [1]): 3.6 nM

CCCCC(C)(C)c1ccc(CN(Cc2cccc(NCC(=O)O)n2)S(=O)(=O)c2cccnc2)cc1 [Example 46, (6-{[4-(1,1-Dimethylpentyl)benzyl](pyridin-3-ylsulfonyl)aminomethyl}pyridin-2-ylamino)acetic acid]
Ki (human EP2 receptor [1]): 3.3 nM

CCCCC(C)(C)c1ccc(CN(Cc2cccc(NCC(=O)O)n2)S(=O)(=O)c2cccs2)cc1 [Example 48, (6-{[4-(1,1-Dimethylpentyl)benzyl](thiophen-2-ylsulfonyl)aminomethyl}pyridin-2-ylamino)acetic acid]
Ki (human EP2 receptor [1]): 6.4 nM

CCCCC(C)(C)c1ccc(CN(Cc2cccc(NCC(=O)O)n2)S(=O)(=O)c2ccccn2)c(F)c1 [Example 55, (6-{[2-Fluoro-4-(1,1-dimethylpentyl)benzyl](pyridin-2-ylsulfonyl)aminomethyl}pyridin-2-ylamino)acetic acid]
Ki (human EP2 receptor [1]): 2.1 nM
EC50 (human EP2 receptor [2]): 7 nM

CCCCC(C)(C)c1ccc(CN(Cc2cccc(NCC(=O)O)n2)S(=O)(=O)c2cccc(F)c2)cc1 [Example 60, (6-{(3-Fluorobenzenesulfonyl)[4-(1,1-dimethylpentyl)benzyl]aminomethyl}pyridin-2-ylamino)acetic acid]
EC50 (human EP2 receptor [2]): 5.5 nM

CCCCC[C@H](O)/C=C/[C@H]1[C@H](O)CC(=O)[C@@H]1C/C=C\CCCC(=O)O [PGE2, Prostaglandin E2, reference compound]
Ki (human EP1 receptor): 9 nM
